Assay results taken from US11969428B2, “Methods and pharmaceutical compositions for treating lymphoid malignancy” (priority 2011, dated 2024).

Experiments:
Experiment in all cases: Ambit KinomeScan screening
Assay type in all cases: binding
Conditions in all cases: CAL-130 10 μM
PLK2 = biological target: T1, PLK2 (Homo sapiens, UniProt Q9NYY3)
T1 construct: purchased Ambit (KinomeScan screening service)
Summary of the method: (§1)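 Single-concentration profiling (10 μM CAL-130) measured displacement of tagged kinases from an immobilized bait ligand. Percent-of-control binding was reported; smaller values denote stronger interaction.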

[1] = biological target: T2, EGFR(L747-S752DEL, P753S) (Homo sapiens, UniProt P00533, DEL747-752/P753S)
T2 construct: unspecified tag; purchased Ambit (KinomeScan screening service)
Summary of the method: as §1

DAPK1 = biological target: T3, DAPK1 (Homo sapiens, UniProt P53355)
T3 construct: purchased Ambit (KinomeScan screening service)
Summary of the method: as §1

SNARK = biological target: T4, SNARK (Homo sapiens, UniProt Q9H093)
T4 construct: tag, kind not specified; purchased Ambit (KinomeScan screening service)
T4 sequence (Q9H093 whole entry): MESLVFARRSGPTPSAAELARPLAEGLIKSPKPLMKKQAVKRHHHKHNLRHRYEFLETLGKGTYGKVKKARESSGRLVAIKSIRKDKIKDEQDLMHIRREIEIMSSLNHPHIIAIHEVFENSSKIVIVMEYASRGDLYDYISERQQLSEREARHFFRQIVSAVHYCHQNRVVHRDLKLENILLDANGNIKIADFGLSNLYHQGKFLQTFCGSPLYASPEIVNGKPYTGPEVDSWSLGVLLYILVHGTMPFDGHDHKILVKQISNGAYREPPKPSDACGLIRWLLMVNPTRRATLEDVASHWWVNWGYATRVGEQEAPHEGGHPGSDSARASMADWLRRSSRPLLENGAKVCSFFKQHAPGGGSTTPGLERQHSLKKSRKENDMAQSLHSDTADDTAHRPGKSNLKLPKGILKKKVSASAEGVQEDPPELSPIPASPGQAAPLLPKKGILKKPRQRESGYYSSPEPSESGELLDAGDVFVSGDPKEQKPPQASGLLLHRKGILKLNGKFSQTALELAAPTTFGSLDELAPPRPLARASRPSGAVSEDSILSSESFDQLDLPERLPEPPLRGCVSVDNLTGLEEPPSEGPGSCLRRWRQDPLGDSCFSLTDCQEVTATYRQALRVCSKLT
Summary of the method: as §1

MEK1 = biological target: T5, MEK1 (Homo sapiens, UniProt Q02750)
T5 construct: purchased Ambit (KinomeScan screening)
Summary of the method: as §1

PCTK1 = biological target: T6, PCTK1 (Homo sapiens, UniProt Q00536)
T6 construct: unspecified tag ('tagged kinases'); purchased Ambit (KinomeScan screening)
Summary of the method: as §1

p38-δ = biological target: T7, p38-δ (Homo sapiens, UniProt O15264)
T7 construct: purchased Ambit (KinomeScan screening service)
Summary of the method: as §1

MAP4K4 = biological target: T8, MAP4K4 (Homo sapiens, UniProt O95819)
T8 construct: Ambit (KinomeScan screening)
Summary of the method: as §1

MET = biological target: T9, MET (Homo sapiens, UniProt P08581)
T9 construct: purchased Ambit (KinomeScan screening)
Summary of the method: as §1

ASK2 = biological target: T10, ASK2 (Homo sapiens, UniProt O95382)
T10 construct: purchased Ambit (KinomeScan screening service)
T10 sequence (O95382 whole entry): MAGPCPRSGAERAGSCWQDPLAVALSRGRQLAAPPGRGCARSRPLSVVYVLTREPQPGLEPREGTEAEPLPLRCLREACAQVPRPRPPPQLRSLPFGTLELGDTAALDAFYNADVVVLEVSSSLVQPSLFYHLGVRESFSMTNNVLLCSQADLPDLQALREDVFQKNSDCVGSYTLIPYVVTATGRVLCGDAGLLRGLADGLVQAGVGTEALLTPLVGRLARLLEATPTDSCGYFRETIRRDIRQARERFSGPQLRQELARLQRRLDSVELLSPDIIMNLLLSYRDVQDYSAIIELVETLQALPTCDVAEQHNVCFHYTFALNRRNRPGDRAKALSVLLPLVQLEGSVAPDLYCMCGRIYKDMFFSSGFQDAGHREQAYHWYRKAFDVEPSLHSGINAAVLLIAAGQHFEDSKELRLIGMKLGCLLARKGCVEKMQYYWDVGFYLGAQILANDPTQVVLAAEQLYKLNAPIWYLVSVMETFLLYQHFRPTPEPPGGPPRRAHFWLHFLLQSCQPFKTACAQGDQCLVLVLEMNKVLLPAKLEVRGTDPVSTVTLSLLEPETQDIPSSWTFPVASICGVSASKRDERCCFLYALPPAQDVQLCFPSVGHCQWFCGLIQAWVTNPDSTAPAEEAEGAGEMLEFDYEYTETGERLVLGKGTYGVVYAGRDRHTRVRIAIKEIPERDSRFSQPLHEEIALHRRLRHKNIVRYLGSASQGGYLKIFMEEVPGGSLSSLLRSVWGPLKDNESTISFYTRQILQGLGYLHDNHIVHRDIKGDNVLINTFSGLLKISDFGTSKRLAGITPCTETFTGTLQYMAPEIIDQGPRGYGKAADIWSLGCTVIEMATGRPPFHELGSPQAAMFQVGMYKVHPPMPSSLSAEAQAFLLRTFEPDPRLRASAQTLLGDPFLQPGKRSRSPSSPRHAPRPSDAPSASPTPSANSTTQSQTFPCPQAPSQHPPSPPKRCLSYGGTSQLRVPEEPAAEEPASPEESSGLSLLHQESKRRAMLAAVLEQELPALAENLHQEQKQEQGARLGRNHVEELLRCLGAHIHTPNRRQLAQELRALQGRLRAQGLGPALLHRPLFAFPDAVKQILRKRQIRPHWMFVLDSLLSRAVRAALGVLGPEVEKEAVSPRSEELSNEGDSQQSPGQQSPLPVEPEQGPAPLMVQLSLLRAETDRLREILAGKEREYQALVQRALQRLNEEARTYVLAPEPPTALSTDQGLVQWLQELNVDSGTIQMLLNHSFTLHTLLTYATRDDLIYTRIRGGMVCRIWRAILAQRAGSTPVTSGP
Summary of the method: as §1

TAK1 = biological target: T11, TAK1 (Homo sapiens, UniProt O43318)
T11 construct: tag (kind not specified); purchased Ambit (KinomeScan screening service)
Summary of the method: as §1

EGFR(S752-I759DEL) = biological target: T12, EGFR(S752-I759DEL) (Homo sapiens, UniProt P00533, DEL752-759)
T12 construct: unspecified tag; purchased Ambit (KinomeScan screening service)
Summary of the method: as §1

RPS6KA2 = biological target: T13, RPS6KA2 (Homo sapiens, UniProt Q15349)
T13 construct: unspecified tag (tagged kinase); purchased Ambit (KinomeScan screening)
Summary of the method: as §1

TRKB = biological target: T14, TRKB (Homo sapiens, UniProt Q16620)
T14 construct: tag, kind not specified; purchased Ambit (KinomeScan screening service)
Summary of the method: as §1

PRKCE = biological target: T15, PRKCE (Homo sapiens, UniProt Q02156)
T15 construct: purchased Ambit (KinomeScan screening service)
Summary of the method: as §1

ALK = biological target: T16, ALK (Homo sapiens, UniProt Q9UM73)
T16 construct: purchased Ambit (KinomeScan screening)
T16 sequence (Q9UM73 19-1620): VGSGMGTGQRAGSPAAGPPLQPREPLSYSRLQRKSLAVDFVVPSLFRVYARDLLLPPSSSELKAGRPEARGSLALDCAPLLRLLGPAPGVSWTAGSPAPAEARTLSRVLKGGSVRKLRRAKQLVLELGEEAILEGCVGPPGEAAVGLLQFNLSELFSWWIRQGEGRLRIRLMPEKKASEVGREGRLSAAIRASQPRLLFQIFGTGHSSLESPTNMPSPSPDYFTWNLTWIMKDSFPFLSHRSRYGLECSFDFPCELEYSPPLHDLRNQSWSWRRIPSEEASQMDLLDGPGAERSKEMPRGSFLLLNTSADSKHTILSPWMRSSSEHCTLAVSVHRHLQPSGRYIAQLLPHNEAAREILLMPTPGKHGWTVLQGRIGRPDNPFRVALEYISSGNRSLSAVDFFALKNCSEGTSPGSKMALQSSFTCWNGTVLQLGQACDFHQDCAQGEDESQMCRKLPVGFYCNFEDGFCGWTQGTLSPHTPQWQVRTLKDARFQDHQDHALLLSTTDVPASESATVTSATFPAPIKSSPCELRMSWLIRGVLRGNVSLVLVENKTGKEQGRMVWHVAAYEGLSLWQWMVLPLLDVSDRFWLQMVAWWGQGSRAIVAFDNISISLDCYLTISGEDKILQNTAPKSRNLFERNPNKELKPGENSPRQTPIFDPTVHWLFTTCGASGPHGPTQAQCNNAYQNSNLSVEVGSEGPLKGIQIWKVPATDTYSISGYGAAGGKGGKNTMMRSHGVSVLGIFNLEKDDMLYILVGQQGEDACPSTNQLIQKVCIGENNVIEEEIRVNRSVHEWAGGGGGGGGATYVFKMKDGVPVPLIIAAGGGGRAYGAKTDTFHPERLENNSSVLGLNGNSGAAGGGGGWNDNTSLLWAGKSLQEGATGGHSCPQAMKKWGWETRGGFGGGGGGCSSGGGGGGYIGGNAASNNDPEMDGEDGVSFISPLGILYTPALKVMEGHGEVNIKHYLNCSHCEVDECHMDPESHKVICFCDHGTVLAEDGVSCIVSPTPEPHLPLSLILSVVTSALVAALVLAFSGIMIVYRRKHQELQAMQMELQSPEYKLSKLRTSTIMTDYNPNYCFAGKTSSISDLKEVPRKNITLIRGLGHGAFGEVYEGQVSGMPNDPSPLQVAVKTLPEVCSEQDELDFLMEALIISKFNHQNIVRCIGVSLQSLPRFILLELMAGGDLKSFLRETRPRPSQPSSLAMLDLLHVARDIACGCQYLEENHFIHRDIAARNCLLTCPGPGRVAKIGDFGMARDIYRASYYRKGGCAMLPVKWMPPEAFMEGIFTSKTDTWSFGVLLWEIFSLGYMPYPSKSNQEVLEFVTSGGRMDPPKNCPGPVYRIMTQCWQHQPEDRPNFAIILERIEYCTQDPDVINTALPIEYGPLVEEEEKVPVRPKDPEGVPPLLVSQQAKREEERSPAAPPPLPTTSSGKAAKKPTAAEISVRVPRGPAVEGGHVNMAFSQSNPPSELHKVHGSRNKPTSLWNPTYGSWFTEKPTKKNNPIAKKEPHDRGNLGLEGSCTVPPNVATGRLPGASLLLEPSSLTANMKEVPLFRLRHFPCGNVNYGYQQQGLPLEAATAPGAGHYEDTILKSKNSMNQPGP
Summary of the method: as §1

RIPK2 = biological target: T17, RIPK2 (Homo sapiens, UniProt O43353)
T17 construct: unspecified tag (tagged kinase); purchased Ambit (KinomeScan screening)
Summary of the method: as §1

INSR = biological target: T18, INSR (Homo sapiens, UniProt P06213)
T18 construct: Ambit (KinomeScan screening)
Summary of the method: as §1

MARK4 = biological target: T19, MARK4 (Homo sapiens, UniProt Q96L34)
T19 construct: purchased Ambit (KinomeScan screening)
Summary of the method: as §1

DRAK2 = biological target: T20, DRAK2 (Homo sapiens, UniProt O94768)
T20 construct: unspecified tag ("tagged kinases"); purchased Ambit (KinomeScan screening service)
Summary of the method: as §1

MYLK = biological target: T21, MYLK (Homo sapiens, UniProt Q15746)
T21 construct: unspecified tag; purchased Ambit (KinomeScan screening panel)
Summary of the method: as §1

STK35 = biological target: T22, STK35 (Homo sapiens, UniProt Q8TDR2)
T22 construct: tag (kind not specified); purchased Ambit (KinomeScan screening service)
Summary of the method: as §1

RET = biological target: T23, RET (Homo sapiens, UniProt P07949)
T23 construct: tag (kind not specified); purchased Ambit (KinomeScan screening service)
Summary of the method: as §1

STK39 = biological target: T24, STK39 (Homo sapiens, UniProt Q9UEW8)
T24 construct: tag (kind not specified); purchased Ambit (KinomeScan screening service)
Summary of the method: as §1

DMPK2 = biological target: T25, DMPK2 (Homo sapiens, UniProt Q6DT37)
T25 construct: unspecified tag ("tagged kinases"); purchased Ambit (KinomeScan screening service)
Summary of the method: as §1

CDK9 = biological target: T26, CDK9 (Homo sapiens, UniProt P50750)
T26 construct: purchased Ambit (KinomeScan screening service)
Summary of the method: as §1

CLK1 = biological target: T27, CLK1 (Homo sapiens, UniProt P49759)
T27 construct: purchased Ambit (KinomeScan screening service)
Summary of the method: as §1

RPS6KA6 = biological target: T28, RPS6KA6 (Homo sapiens, UniProt Q9UK32)
T28 construct: tag, kind not specified; purchased Ambit (KinomeScan screening service)
Summary of the method: as §1

MEK3 = biological target: T29, MEK3 (Homo sapiens, UniProt P46734)
T29 construct: purchased Ambit (KinomeScan screening)
Summary of the method: as §1

DYRK1B = biological target: T30, DYRK1B (Homo sapiens, UniProt Q9Y463)
T30 construct: unspecified tag ("tagged kinases"); purchased Ambit (KinomeScan screening service)
Summary of the method: as §1

MEK2 = biological target: T31, MEK2 (Homo sapiens, UniProt P36507)
T31 construct: purchased Ambit (KinomeScan screening)
Summary of the method: as §1

GAK = biological target: T32, GAK (Homo sapiens, UniProt O14976)
T32 construct: unspecified tag ('tagged kinases'); purchased Ambit (KinomeScan screening service)
Summary of the method: as §1

TLK1 = biological target: T33, TLK1 (Homo sapiens, UniProt Q9UKI8)
T33 construct: unspecified tag (tagged kinase); purchased Ambit (KinomeScan screening)
T33 sequence (Q9UKI8 whole entry): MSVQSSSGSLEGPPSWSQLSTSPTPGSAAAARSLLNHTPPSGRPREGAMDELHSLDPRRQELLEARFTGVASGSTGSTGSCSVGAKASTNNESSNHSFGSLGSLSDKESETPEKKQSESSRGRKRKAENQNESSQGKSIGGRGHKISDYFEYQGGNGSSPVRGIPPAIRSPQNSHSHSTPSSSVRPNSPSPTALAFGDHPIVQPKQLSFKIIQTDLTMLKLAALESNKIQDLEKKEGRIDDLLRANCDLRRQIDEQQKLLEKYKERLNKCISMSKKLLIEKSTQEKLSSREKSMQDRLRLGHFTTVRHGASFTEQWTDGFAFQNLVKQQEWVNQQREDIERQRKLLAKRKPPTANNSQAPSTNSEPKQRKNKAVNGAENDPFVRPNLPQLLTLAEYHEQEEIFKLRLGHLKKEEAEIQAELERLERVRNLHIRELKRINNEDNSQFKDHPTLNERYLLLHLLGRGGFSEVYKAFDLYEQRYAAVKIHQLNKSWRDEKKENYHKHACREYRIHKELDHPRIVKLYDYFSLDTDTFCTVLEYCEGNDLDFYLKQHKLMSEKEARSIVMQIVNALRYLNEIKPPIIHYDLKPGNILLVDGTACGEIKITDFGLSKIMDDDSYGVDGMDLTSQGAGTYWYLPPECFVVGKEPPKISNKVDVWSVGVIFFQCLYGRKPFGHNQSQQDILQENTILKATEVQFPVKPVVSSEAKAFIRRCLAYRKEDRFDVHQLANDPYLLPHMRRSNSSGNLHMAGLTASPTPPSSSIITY
Summary of the method: as §1

MAP3K4 = biological target: T34, MAP3K4 (Homo sapiens, UniProt Q9Y6R4)
T34 construct: Ambit (KinomeScan screening)
Summary of the method: as §1

CSK = biological target: T35, CSK (Homo sapiens, UniProt P41240)
T35 construct: purchased Ambit (KinomeScan screening service)
Summary of the method: as §1

ABL1(E255K) = biological target: T36, ABL1(E255K) (Homo sapiens, UniProt P00519, E255K)
T36 construct: unspecified tag ("tagged kinases"); purchased Ambit (KinomeScan screening)
Summary of the method: as §1

Measured: Percent of Control Binding

T1 sequence (Q9NYY3 whole entry): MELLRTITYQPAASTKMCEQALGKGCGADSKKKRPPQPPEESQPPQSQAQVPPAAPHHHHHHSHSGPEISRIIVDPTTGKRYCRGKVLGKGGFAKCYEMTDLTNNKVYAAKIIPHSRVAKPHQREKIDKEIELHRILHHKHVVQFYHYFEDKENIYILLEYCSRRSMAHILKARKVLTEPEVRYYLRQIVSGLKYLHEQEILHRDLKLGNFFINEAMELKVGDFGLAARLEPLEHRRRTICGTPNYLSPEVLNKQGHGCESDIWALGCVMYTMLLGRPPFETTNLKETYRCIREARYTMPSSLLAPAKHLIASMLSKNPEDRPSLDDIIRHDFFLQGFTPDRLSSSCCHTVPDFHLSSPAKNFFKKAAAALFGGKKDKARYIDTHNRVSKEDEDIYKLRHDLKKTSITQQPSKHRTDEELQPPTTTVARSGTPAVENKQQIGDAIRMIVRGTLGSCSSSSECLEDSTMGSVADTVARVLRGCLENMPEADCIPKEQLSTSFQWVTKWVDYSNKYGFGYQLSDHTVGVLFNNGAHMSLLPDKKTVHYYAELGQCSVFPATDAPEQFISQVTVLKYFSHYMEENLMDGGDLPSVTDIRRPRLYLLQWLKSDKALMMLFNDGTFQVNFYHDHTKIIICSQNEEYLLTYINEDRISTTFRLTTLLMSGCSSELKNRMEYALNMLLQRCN

Cc1ccccc1-n1c(C(C)Nc2nc(N)nc3nc[nH]c23)nc2cccc(C)c2c1=O (stereo not drawn) [CAL-130]
100%: all assays above
